Assay results reported in patent US9895322B2, “Pharmaceutical compositions for the delivery of substantially water-insoluble drugs” (priority 2012, dated 2018).
Converted amounts (≈) assume the structure as drawn.

Key:
[1] = cited from earlier work; for water solubility: background statement
[2] = system: Taxol resistant cell line; experiment: cytopathic effects on Taxol resistant cell line (FIG. 10, 11); format: cell-based; details: 5 microgram/ml Taxol, FIG. 11
Excerpt: FIG. 10A. A taxol resistant cell line without treatment (in vitro) showing aggressive growth. FIG. 10B. The same cell line treated with the hybrid taxol, showing cytopathic effects.

Structure (SMILES)	water solubility [1]	solubility in DMSO ([1]; DMSO) [mg/mL]	solubility in water ([1]; estimated) [µM]	solubility in ethanol ([1]; ethanol, with warming) [mg/mL]	cytopathic effects at very low concentration [2]
CC1=C(/C=C/C(C)=C/C=C/C(C)=C/C(=O)O)C(C)(C)CCC1 [All-trans-retinoic acid]	not water-soluble				
C=C(c1ccc(C(=O)O)cc1)c1cc2c(cc1C)C(C)(C)CCC2(C)C [Bexarotene]	poorly soluble in water	65 (≈ 187 mM)	10 to 50	10 (≈ 28.7 mM)	
CC(=O)O[C@H]1C(=O)[C@@]2(C)[C@H]([C@H](OC(=O)c3ccccc3)[C@]3(O)C[C@H](OC(=O)[C@H](O)[C@@H](NC(=O)c4ccccc4)c4ccccc4)C(C)=C1C3(C)C)[C@]1(OC(C)=O)CO[C@@H]1C[C@@H]2O [Taxol, paclitaxel]	very poorly water-soluble				cytopathic effects are observed
